Legend:
anaesthetized cat = experiment: Effect on blood pressure and adrenaline vasopressure response in anaesthetized cat, i.v. (Table 2); type: in vivo; settings: for inhibition at 2 µmol/kg / inhibition at 10 µmol/kg: Felis catus, iv
Experimental: (§1) (a) Cats (2.6-4.0 kg) of either sex anaesthetized with pentobarbitone sodium (40 mg/kg i.v.) and showing basal mean arterial blood plessure below 150 mm (Hg) were categorised as normotensive and ahove 150 mm Hg as hypertensive. Arterial blood pressure (EP) was recorded from one of the carotid artery through a stathum P23 DC pressure transducer and 7P1 low level DC preamplifier on a Grass Model P7 Polygraph, Signals from 7P1 preamplifier were used to trigger 7P4 Tachograph preamplifier for recording the heart rate (HR). Right femoral vein and Trachea were cannulated for intravenous injections and artificial ventilation respectively. Control responses to intravenous injection of noradrenaline (2-4 ug); acetyl choline (1-2 ug); histamine (1-2 ug) and isoprenaline (1-2 ug) were taken before and after the administration of test doses of each compounds.

[1] = system: Langendorff perfused rat heart; experiment: Compound at reperfusion after brief (16 min.) ischemic insult (Table 3); settings: 0.001 ug/ml at reperfusion
Isolated aortic strip = experiment: Isolated aortic strip, endothelin induced contraction
Source text: (i) Isolated aortic strip:

[2] = system: histamine induced bronchoconstriction; experiment: Konzett and Rossler preparation, histamine induced bronchoconstriction; settings: in vivo
Source text: (iv) Konzett and Rossler preparation:

Site of action: ICV = type: in vivo; settings: dose 0.34-1.36
Rat aortic ring = Rat aortic ring preparation, NE induced contraction
Source text: (v) Rat aortic ring preparation:

cat [3] = experiment: In vivo drug antagonism studies at 2 uMol dose i.v. in cat; settings: 2 uMol i.v.
Source text: (B) In viva Drug antagonism studies at 2 uMol dose i.v. in cat: […]

Normotensive cat = experiment: Effect on blood pressure, heart rate and adrenaline vasopressor response, anaesthetized normotensive cat; type: in vivo
Experimental: (§2) 2. Effect on blood pressure, heart rate and adrenaline vasopressor response of anaesthetized (pentobarbitone sodium 40 & 60 mg/kg i.p. in cat and rat respectively) normotensive & hypertensive rat & cat model preparations.
as §1

[4] = system: Isolated Guinea pig ileum; experiment: Isolated Guinea pig ileum preparation, antihistaminic activity; settings: 0.5-5.0 ug/ml
cat [5] = experiment: Comparative antihypertensive effect with clinically used antihypertensive drugs at 2 uMol/kg i.v. in cat; type: in vivo
Source text: (4) Comparative antihypertensive effect with clinically used antihypertensive drugs at 2 uMol/kg i.v. dose in cat

Spinal transected cat = experiment: Site of action: spinal transected cat; type: in vivo; settings: dose 2-10 umol/kg i.d.
[6] = system: Naturally occurring hypertensive cat; experiment: Effect on blood pressure, heart rate and adrenaline vasopressor response, anaesthetized naturally occurring hypertensive cat; type: in vivo
Experimental: as §2, §1

[7] = Cardioprotective effect against myocardial stunning; settings: in vivo
[8] = system: Langendorff perfused rat heart; experiment: Langendorff perfused rat heart, prolonged global ischemia, compound given at reperfusion (Table 1)
Experimental: Further, in Langendorff perfused rat heart preparation subjected to even upto […]. global ischemia, the compound at 0.001 ug/ml conc. given at the time of reperfusion revived normal rhythmic contraction started within […]. (Table 1) and incidence of reperfusion induced arrhythmia were abolished.

[9] = system: Hypertensive rat model preparation; experiment: Effect on blood pressure, heart rate and adrenaline vasopressor response, hypertensive rat model preparation; type: in vivo
Experimental: as §2

[10] = 0.001 ug/ml at reperfusion, 90 min. ischemic insult
[11] = 10^-6 M, ischemic insult 45 min

Structure (SMILES): O=C1CCCN1CCCN1CCN(c2ccccn2)CC1 [2-Pyridyl, n=1]
- Dur. (anaesthetized cat; 2.0 umol/kg i.v.): 16 min
- Dur. (anaesthetized cat; 10.0 umol/kg i.v.): 43 min
- inhibition at 2 µmol/kg (anaesthetized cat; 2.0 umol/kg i.v.): 40%
- inhibition at 10 µmol/kg (anaesthetized cat; 10.0 umol/kg i.v.): -20 to 0%
- Onset [1]: 2.0 min
- Percentage recovery 15 min. [1]: 47.60%
- Percentage recovery 30 min. [1]: 71.40%

Structure (SMILES): COc1ccccc1N1CCN(CCCN2CCCC2=O)CC1 [C6 H4-2-OCH3, n=1]
- Dur. (anaesthetized cat; 2.0 umol/kg i.v.): 19 min
- Dur. (anaesthetized cat; 10.0 umol/kg i.v.): 67 min
- inhibition at 2 µmol/kg (anaesthetized cat; 2.0 umol/kg i.v.): 47%
- inhibition at 10 µmol/kg (anaesthetized cat; 10.0 umol/kg i.v.): > 100%
- Onset [1]: 2.0 min
- Percentage recovery 15 min. [1]: 45.40%
- Percentage recovery 30 min. [1]: 59.09%

Structure (SMILES): O=C1CCCN1CCCN1CCN(c2cccc(Cl)c2)CC1 [Example 2, 1-[4-(3-chlorophenyl)piperazin-1-yl]-3-[2-oxopyrrolidin-1-yl]propane]
- Percentage recovery 15 min. ([1]; listed as C6 H4 -3-C1, n=1): 50.00%
- Percentage recovery 30 min. ([1]; listed as C6 H4 -3-C1, n=1): 88.80%
- Onset ([1]; listed as C6 H4 -3-Cl, n=1): 3.0 min
- Percentage recovery 15 min. ([1]; listed as C6 H4 -3-Cl, n=1): 31.50%
- Percentage recovery 30 min. ([1]; listed as C6 H4 -3-Cl, n=1): 39.40%

Structure (SMILES): O=C1CCCN1CCCN1CCN(c2ccc(Cl)cc2)CC1 [Example 3, 1-[4-(4-chlorophenyl)piperazin-1-yl]-3-[2-oxopyrrolidin-1-yl]propane]
- Percentage recovery 15 min. [1]: 87.50%
- Percentage recovery 30 min. [1]: 120.80%

Structure (SMILES): O=C1CCCN1CCCN1CCN(c2cccc(F)c2)CC1 [Example 4, 1-[4-(3-fluorophenyl)piperazin-1-yl)-3-[2-oxopyrrolidin-1-yl]propane]
- Percentage recovery 15 min. [1]: 120.00%
- Percentage recovery 30 min. [1]: 180.00%

Structure (SMILES): O=C1CCCN1CCCN1CCN(c2ccc(F)cc2)CC1 [Example 5, 1-[4-(4-fluorophenyl)piperazin-1-yl]-3-[2-oxopyrrolidin-1-yl]propane]
- Endothelin induced contraction (Isolated aortic strip): inhibited significantly
- Response to endothelin after washing the preparation (Isolated aortic strip; after washing): relaxation rather than contraction
- antihistaminic activity against histamine induced bronchoconstriction [2]: some antihistaminic activity
- B.P. Fall (%) (Site of action: ICV): 8-10%
- B.P. fall Dur. (Site of action: ICV): 10 to 15 min
- NE induced contraction (Rat aortic ring): inhibited
- reduction of the fall in pressure (cat [3]; pretreatment with KATP blocker glibenclamide): only partially reduced
- alteration of antihypertensive effect (cat [3]; pretreatment with atropine sulphate, mepyramine maleate, propranolol or yohimbine): failed to alter
- B.P. Fall (%) (Normotensive cat; 10 uMol/kg i.d.): 22%
- B.P. fall Dur. (Normotensive cat; 10 uMol/kg i.d.): 85 min
- B.P. Fall (%) (Normotensive cat; 20 uMol/kg i.d.): 21%
- B.P. fall Dur. (Normotensive cat; 20 uMol/kg i.d.): > 102.5 min
- antihistaminic activity [4]: significant antihistaminic activity
- Percentage recovery 15 min. [1]: 81.25%
- Percentage recovery 30 min. [1]: 78.12%
- Dur. (cat [5]): 25 min
- B.P. Fall (%) (Spinal transected cat): 14-18%
- B.P. fall Dur. (Spinal transected cat): 15 to 30 min
- B.P. Fall (%) ([6]; 10 uMol/kg i.d.): 16%
- B.P. fall Dur. ([6]; 10 uMol/kg i.d.): 110 min
- B.P. Fall (%) ([6]; 20 uMol/kg i.d.): 22%
- B.P. fall Dur. ([6]; 20 uMol/kg i.d.): > 156.75 min
- cardioprotective effect against myocardial stunning [7]: cardioprotective effect against myocardial stunning at a much smaller dose than antihypertensive dose
- Percentage recovery 15 min. [8, 10]: 81.25%
- Percentage recovery 30 min. [8, 10]: 87.15%
- incidence of reperfusion induced arrhythmia ([8]; 0.001 ug/ml at reperfusion, up to 90 min global ischemia): abolished
- B.P. Fall (%) ([9]; 5 uMol/kg i.d.): 27%
- B.P. fall Dur. ([9]; 5 uMol/kg i.d.): 51 min
- Heart rate Pre treatment ([9]; 5 uMol/kg i.d.): 350 beats/min
- Heart rate post treatment ([9]; 5 uMol/kg i.d.): 370 beats/min
- B.P. Fall (%) ([9]; 10 uMol/kg i.d.): 22%
- B.P. fall Dur. ([9]; 10 uMol/kg i.d.): 76 min
- B.P. Fall (%) ([9]; 20 uMol/kg i.d.): 29%
- B.P. fall Dur. ([9]; 20 uMol/kg i.d.): 100 min

Structure (SMILES): CCc1ccc(N2CCN(CCCN3CCCC3=O)CC2)cc1 [Example 6, 1-[4-(4-ethylphenyl)piperazin-1-yl]-3-[2-oxopyrrolidin-1-yl]propane]
- Percentage recovery 15 min. [1]: 103.03%
- Percentage recovery 30 min. [1]: 60.60%

Structure (SMILES): CCc1ccccc1N1CCN(CCCN2CCCC2=O)CC1 [Example 7, 1-[4-(2-ethylphenyl)piperazin-1-Yl]-3-[2-oxopyrrolidin-1-yl]propane]
- Percentage recovery 15 min. [1]: 106.06%
- Percentage recovery 30 min. [1]: 136.36%

Structure (SMILES): O=C1CCCCN1CCCN1CCN(c2cccc(C(F)(F)F)c2)CC1 [Example 14, 1-[4-(3-trifluoromethylphenyl)piperazin-1-yl]-3-[2-oxopiperidin-1-yl]propane]
- Dur. (min.) (anaesthetized cat; 10.0 umol/kg i.v.): Tr

Structure (SMILES): COC(=O)C1=C(C)NC(C)=C(C(=O)OC)C1c1ccccc1[N+](=O)[O-] [Nifedipine, reference compound]
- Percentage recovery 15 min. [8, 11]: 0.66%
- Percentage recovery 30 min. [8, 11]: 0.0%

— patent US6150367A, “1-[4-arylpiperazin-1-yl]-3-[2-oxopyrrolidin/piperidin-1-yl]propanes and their use in medical treatments” (Council of Scientific & Industrial Research, priority 1997, dated 2000)
